Series [1] in a line: Selectivity index, ratio of MHC10 for human RBC to geometric mean of peptide MIC for gram positive bacteria. The series is classed as toxicity. The following applies: human red blood cells, read-out: Selectivity Index.
For series [2], the system named is Escherichia coli. Nature of the series: Induction of membrane disruption in Escherichia coli ATCC 25922 assessed as corrugated membrane surface at 4 times of MIC after 2 hrs by SEM analysis. The series is classed as functional, organism-based.
The next series concerns Erythrocyte. The series is described as follows: Hemolytic activity in human RBC measured after 1 hr by microplate reader analysis. It counts as ADME, cell-based.
Series [3] has as its system Staphylococcus aureus. Nature of the series: Antibiofilm activity against Staphylococcus aureus ATCC 25923 at 2 times of MIC after 24 hrs by crystal violet staining based assay. The series is classed as functional, organism-based.
Series [4] deals with Escherichia coli. Nature of the series: Antibacterial activity against Escherichia coli ATCC 25922 after 18 hrs in presence of KCl by CLSI based broth microdilution method (reference value: 64 microM). The series is classed as functional. To be noted: ATCC 25922, 18 h. In general terms: In broth dilution the organism is exposed to a series of concentrations in liquid medium.

For series [5], the system named is Staphylococcus aureus. Nature of the series: Antibacterial activity against Staphylococcus aureus ATCC 25923 after 18 hrs in presence of MgCl2 by CLSI based broth microdilution method (reference value: 32 microM). The following applies: ATCC 25923, 18 h. It counts as functional.
The nature of series [6]: Cytotoxicity against mouse RAW264.7 cells assessed as cell proliferation at 64 uM after 1 hr by MTT assay relative to control. The series is classed as cell-based. The following applies: read-out: Activity. (Tetrazolium assays rely on reduction of a dye to a coloured formazan, in cell work by metabolically active cells.)
Series [7] concerns Escherichia coli. The series is described as follows: Antibiofilm activity against Escherichia coli ATCC 25922 assessed as reduction in biofilm inhibition at 0.5 to 1 times of MIC after 24 hrs by crystal violet staining based assay. It counts as functional, organism-based.
Series [8] can be described thus: Selectivity index, ratio of MHC10 for human RBC to geometric mean of peptide MIC for gram negative bacteria. The series is classed as toxicity. The following applies: human red blood cells, read-out: Selectivity Index.
For a further series, the system named is DNA. The series is described as follows: Binding affinity to Escherichia coli ATCC 25922 genomic DNA after 30 mins by agarose gel electrophoresis. It counts as nucleic-acid assay.
Series [9] relates to Staphylococcus aureus. The series is described as follows: Ratio of antibacterial activity against Staphylococcus aureus ATCC 25923 in presence of FeCl3 to antibacterial activity against Staphylococcus aureus ATCC 25923. It counts as functional.
Series [10] is described as follows: Hemolytic activity in human RBC at 256 uM measured after 1 hr by microplate reader analysis relative to control. To be noted: human red blood cells (erythrocytes), read-out: Activity. It counts as ADME, cell-based, Erythrocyte.
The subject of series [11] is Escherichia coli. The series is described as follows: Antibiofilm activity against Escherichia coli ATCC 25922 assessed as reduction in biofilm inhibition at MIC after 24 hrs by crystal violet staining based assay relative to control. It counts as functional.
Series [12] deals with Staphylococcus aureus. The series is described as follows: Antibacterial activity against Staphylococcus aureus ATCC 25923 after 18 hrs in presence of NaCl by CLSI based broth microdilution method (reference value: 16 microM). It counts as functional. The following applies: ATCC 25923, 18 h.
Series [13] has as its system Escherichia coli. Nature of the series: Antimicrobial activity against Escherichia coli ATCC 25922 preincubated for 6 hrs in presence of 10% mouse serum and measured after 18 hrs by CLSI-based broth microdilution assay (reference value: 4 microM). The series is classed as functional.
In series [14] the test system is Staphylococcus aureus. Nature of the series: Antibiofilm activity against Staphylococcus aureus ATCC 25923 at 1 to 2 times of MIC after 24 hrs by crystal violet staining based assay. The series is classed as functional, organism-based.
In series [15] the test system is Escherichia coli. The series is described as follows: Antimicrobial activity against Escherichia coli ATCC 25922 preincubated for 6 hrs in presence of 10% mouse serum and measured after 18 hrs by CLSI-based broth microdilution assay (reference value: 16 microM). The series is classed as functional.
The subject of series [16] is Staphylococcus aureus. The series is described as follows: Antibacterial activity against Staphylococcus aureus ATCC 25923 after 18 hrs in presence of NaCl by CLSI based broth microdilution method (reference value: 4 microM). It counts as functional. The following applies: ATCC 25923, 18 h.
For series [17], the system named is Escherichia coli. The series is described as follows: Antibacterial activity against Escherichia coli ATCC 25922 after 18 hrs in presence of KCl by CLSI based broth microdilution method (reference value: 16 microM). The series is classed as functional. To be noted: ATCC 25922, 18 h.
Series [18] concerns Escherichia coli. Nature of the series: Antibacterial activity against Escherichia coli ATCC 25922 after 18 hrs in presence of MgCl2 by CLSI based broth microdilution method (reference value: 16 microM). The series is classed as functional. The following applies: ATCC 25922, 18 h.
The next series concerns Pseudomonas aeruginosa. Nature of the series: Antibiofilm activity against Pseudomonas aeruginosa ATCC 27853 at 1 to 2 times of MIC after 24 hrs by crystal violet staining based assay. The series is classed as functional, organism-based.
Series [19] relates to Escherichia coli. Nature of the series: Antibacterial activity against Escherichia coli ATCC 25922 after 18 hrs in presence of FeCl3 by CLSI based broth microdilution method (reference value: 16 microM). It counts as functional. The following applies: ATCC 25922, 18 h.
For series [20], the system named is Escherichia coli. Nature of the series: Antimicrobial activity against Escherichia coli ATCC 25922 preincubated for 1 hr in presence of 10% mouse serum and measured after 18 hrs by CLSI-based broth microdilution assay (reference value: 16 microM). It counts as functional.
Series [21] concerns Escherichia coli. The series is described as follows: Antibacterial activity against Escherichia coli ATCC 25922 after 18 hrs in presence of NaCl by CLSI based broth microdilution method (reference value: 16 microM). It counts as functional. To be noted: ATCC 25922, 18 h.
Series [22] relates to Staphylococcus aureus. The series is described as follows: Antibacterial activity against Staphylococcus aureus ATCC 25923 after 18 hrs in presence of MgCl2 by CLSI based broth microdilution method (reference value: 4 microM). It counts as functional. To be noted: ATCC 25923, 18 h.

Activity calls are given as the source filed them. The rule behind the calls is not given here.

For `CCCCCCCC(=O)NCC(=O)N[C@@H](CC(C)C)C(=O)N[C@@H](CC(C)C)C(=O)N[C@H](CCCCN)C(=O)N[C@@H](CCCNC(=N)N)C(=O)N[C@H](C(=O)N[C@H](CCCCN)C(=O)N[C@H](C(=O)N[C@@H](CC(C)C)C(=O)N[C@@H](CC(C)C)C(N)=O)[C@@H](C)O)[C@@H](C)CC`, the values for the selectivity ratio in [1] and in series [8] were 15.4 and 12.2, respectively. Besides, the outcome in the series with Escherichia coli [2] was Active. Further, the MHC10 in the series with Erythrocyte was over 256 µM. The inhibition result in the series with Staphylococcus aureus [3] and in the series on Escherichia coli [7] was “Active” in each case. Moreover, the values for the MIC in the series on Escherichia coli [4] and with Staphylococcus aureus [5] were 32 µM and 64 µM, respectively. Also, in series [6], the viability at 1 h, 64 µM is over 80%. The Activity result in the series on DNA was “Dose-dependent effect”. Besides, in the series on Staphylococcus aureus [9], the Ratio is recorded as 2 - 4.
In the case of `CCCCCCCC(=O)NC(Cc1cn(CCCC[C@H](NC(C)=O)C(=O)NCC(=O)N[C@@H](CC(C)C)C(=O)N[C@@H](CC(C)C)C(=O)N[C@H](CCCCN)C(=O)N[C@@H](CCCNC(=N)N)C(=O)N[C@H](C(=O)N[C@H](CCCCN)C(=O)N[C@H](C(=O)N[C@@H](CC(C)C)C(=O)N[C@@H](CC(C)C)C(N)=O)[C@@H](C)O)[C@@H](C)CC)nn1)C(=O)NCC(=O)N[C@@H](CC(C)C)C(=O)N[C@@H](CC(C)C)C(=O)N[C@H](CCCCN)C(=O)N[C@@H](CCCNC(=N)N)C(=O)N[C@H](C(=O)N[C@H](CCCCN)C(=O)N[C@H](C(=O)N[C@@H](CC(C)C)C(=O)N[C@@H](CC(C)C)C(N)=O)[C@@H](C)O)[C@@H](C)CC` (some centres undefined), the figures for the selectivity ratio in [1] and in series [8] were 11.3 and 14.2, respectively. In [10], the hemolysis at 1 h, 256 µM is under 5%. For the same molecule, the outcome in the series on Escherichia coli [2] was Active. Further, the MHC10 in the series with Erythrocyte was 128 µM. The “inhibition (INH)” value in the series on Escherichia coli [11] is over 50%. The results for the minimal inhibitory concentration (MIC) in the series on Staphylococcus aureus [12] and in the series on Escherichia coli [13] were 32 µM and 16 µM, respectively. Besides, the inhibition result with Staphylococcus aureus [14] is “Active”. The Activity result in the series with DNA was “Dose-dependent effect”. For the same molecule, the Ratio in the series on Staphylococcus aureus [9] is 2 - 4.
Consider `CCCCCCCCCCCC(=O)NCC(=O)N[C@@H](CC(C)C)C(=O)N[C@@H](CC(C)C)C(=O)N[C@H](CCCCN)C(=O)N[C@@H](CCCNC(=N)N)C(=O)N[C@H](C(=O)N[C@H](CCCCN)C(=O)N[C@H](C(=O)N[C@@H](CC(C)C)C(=O)N[C@@H](CC(C)C)C(N)=O)[C@@H](C)O)[C@@H](C)CC`, for which the selectivity ratio in [1] came to 2.18; in series [8], 1.14. Further, the MIC (usually the least concentration at which growth counts as inhibited) in the series on Escherichia coli [15] amounted to 32 µM; with Staphylococcus aureus [16], 4 µM; in the series with Escherichia coli [17], 4 µM; with Escherichia coli [18] it was 16 µM; with Escherichia coli [19], 4 µM; in the series with Escherichia coli [20] it was 16 µM. The figures for the minimum inhibitory concentration (MIC) with Escherichia coli [21] and with Staphylococcus aureus [22] were 16 µM and 8 µM, respectively. In addition, in the series on Escherichia coli [2], the result was Active. The MHC10 with Erythrocyte was determined as 16 µM. In addition, the inhibition result in the series on Staphylococcus aureus [3], in the series on Pseudomonas aeruginosa and in the series with Escherichia coli [7] was “Active” in each case. For the same molecule, in the series with DNA, the Activity result was “Dose-dependent effect”. In addition, the Ratio with Staphylococcus aureus [9] is listed as 2 - 4.

The record behind these values is ChEMBL document CHEMBL4359906, “Design and synthesis of new N-terminal fatty acid modified-antimicrobial peptide analogues with potent in vitro biological activity” (Eur J Med Chem, 2019).
